Reference: patent publication US6939303B2, “Method and system of determining cardiac contractility” (Provecto Tecnico R-2000, Ca, priority 1999, dated 2005)
Where “and” joins values, the source holds several entries; their conditions need not be identical. Equal entries are not always repeated. Where two headings read alike, the source gives them in different places.

Assays:
normal subjects [1] = conditions: ten normal subjects; cited from earlier work
Conscious Dogs [2] = conditions: cited from earlier work; for ESP/ESV Avg. Value / EF Avg. Value: Example 12, animals; for EF Avg. Value: ejection fraction; for Change in contractile state, ESP/ESV / Change in contractile state, dP/dt / Change in contractile state, ejection fraction: dogs
[3] = system: patients, most of them with coronary artery disease; test: Cardiac contractility under load or inotropic drugs, data of Takeuchi et al. (Examples 1 and 3); assay type: in vivo, human; design: key to C, cardiac contractility calculated with the method of this invention: relative contractility scale; control state C = 100; conditions: for Alteration in cardiac contractility, method of this invention: change vs control
Protocol: (§1) The capability of the method of the present invention to assess cardiac contractility was evaluated using data from several experiments published in the literature and suitable for analysis. In this approach, afterload in the method was expressed as systolic pressure. Since different methodologies to measure cardiac contractility were used, the comparison between them was attained by analyzing the amount of changes (delta values) and were statistically treated using paired t test, ANOVA, correlation, and agreement between methods when applicable, as, for example, described in Lancet, Vol. 1, pages 307 to 310 (1986) by Bland et al.
Hemodynamic data was utilized from Takeuchi et al. (“Single-Beat Estimation of the Slope of the End-Systolic Pressure-Volume Relation in the Human Left Ventricle”. Circulation, Vol. 83, pages 202 to 212 (1991)).
Initially, to calibrate the model of the method of this invention, the average normal (or control state) values were used: • Preload (end-diastolic volume)=70 (Pre_adj) • Afterload (Systolic pressure)=109 (After_adj) • Stroke volume (SV)=40 (SV_adj) • Cardiac contractility (C)=100 (C_adj) Thereafter, the C value in each case during angiotension infusion was calculated using its corresponding value of preload, afterload and stroke volume. For instance, for the first case receiving angiotenison, where:
The first step was to obtain the edge value for the tetrahedron for the control state using the standard mathematical equation for the volume of a tetrahedron: Edge=^3{overscore (6*sv—adj)} Therefore, for the control state, Edge=^3{overscore (6*40)}=6.214465 The next step was to obtain the unitary (u) values of preload (pre_u) and afterload (after_u).
Pre—u=68*(6.214465/70)=6.036908 [formula] In order to obtain the unitary (u) value of C, using the equation derived herein for cardiac contractility [formula] Therefore, the value of C (C_v) for Case 1 is: [formula] Thus, during angiotensin treatment, the corresponding C values for Cases 1 to 8 were calculated using the method of this invention to be as follows: […]
Cardiovascular data was utilized from “Single-beat Estimation of the Slope of the End-Systolic Pressure-Volume Relation in the Human Left Ventricle,” Circulation, Vol. 83, pages 202 to 212 (1991) by Takeuchi et al. This study involved 25 patients, most of them with coronary artery disease. […] Hemodynamic modifications were measured with high-fidelity micromanometer and ventriculography. […] The increase in cardiac contractility using dobutamine induced changes measured by the method of this invention was 23% in comparison to the measurements made with ejection fraction of 15% and with ESP/ESV of 32%.

[4] = system: patients, most of them with coronary artery disease; design: After_v, afterload (systolic pressure): unit not given beside the values; conditions: cited from earlier work; for Alteration in cardiac contractility, ESP/ESV / Alteration in cardiac contractility, ejection fraction: change vs control
normal subjects [5] = test: Cardiac contractility with methoxamine and dobutamine, echocardiographic data of Borow et al. (Example 4); assay type: in vivo, human; conditions: ten normal subjects
Protocol: as §1
Cardiovascular data was utilized from “Sensitivity of End-Systolic Pressure-Dimension and Pressure-Volume Relations to the Inotropic State in Humans,” Circulation, Vol. 65, pages 988 to 997 (1982) by Borow et al. Ten normal subjects were studied echocardiographically.

Conscious Dogs [6] = test: Contractile state with dobutamine and verapamil, data of Little et al. (Example 12); assay type: in vivo, dog; conditions: for Method of This Invention Avg. Value: Example 12, animals, control 100.0; for Change in contractile state, method of this invention: dogs
Protocol: as §1
Cardiovascular data was utilized from “Response of the Left Ventricular End-Systolic Pressure-Volume Relation in Conscious Dogs to a Wide Range of Contractile States,” Circulation, Vol. 78, pages 736 to 745 (1988) by Little et al. In this study, the contractile state was increased by dobutamine and decreased by verapamil.

Conscious Dog [7] = conditions: cited from earlier work; for Vcf Avg. Value (velocity of shortening) / dP/dT Avg. Value: Example 13, animals; for Change, Vcf / Change, dP/dt / Change, dP/dt DP40: conscious dog
Conscious Dog [8] = test: Changes in preload, afterload and inotropic state, data of Mahler et al. (Example 13); assay type: in vivo; conditions: for Method of This Invention Avg. Value: Example 13, animals, control 100.0; for Change, method of the present invention: conscious dog
Protocol: as §1
Cardiovascular data was utilized from “Effects of Changes in Preload, Afterload and Inotropic State on Ejection and Isovolumic Phase Measures of Contractility in the Conscious Dog,” Am. J. Cardiol., Vol. 35, pages 623 to 634 (1975) by Mahler et al. In this study, increase in preload was attained by Ringer's solution infusion, and rise of blood pressure with phenylephrine administration. […] The method of this invention was less sensitive than the other indices to measure changes in the inotropic state induced with isoproterenol or propranolol.

[9] = system: patients with coronary artery disease; conditions: load modifications; cited from earlier work
[10] = system: patients with coronary artery disease; test: Cardiac contractility with methoxamine and nitrates, data of Mehmel et al. (Example 6); assay type: in vivo, human; conditions: load modifications
Protocol: as §1
Cardiovascular data was utilized from “The Linearity of the End-Systolic Pressure-Volume Relationship in Man and its Sensitivity for Assessment of Left Ventricular Function,” Circulation, Vol. 63, pages 1216 to 1222 (1981) by Mehmel et al. This study was performed in patients with coronary artery disease and with catheter-tip manometer and ventricular angiogram measurements.

[11] = system: normal subjects and patients with coronary artery disease; conditions: cited from earlier work
[12] = system: normal subjects and patients with coronary artery disease; test: Cardiac contractility with phenylephrine, data of El-Tobgi et al. (Example 5); assay type: in vivo, human
Protocol: as §1
Cardiovascular data was utilized from “Left Ventricular Function in Coronary Artery Disease,” J. Am. Coll. Cardiol., Vol. 3, pages 781 to 788 (1984) by El-Tobgi et al. In this study, normal subjects (group I) were compared with two groups of patients with coronary artery disease (groups II and III, the last one with ventricular dysfunction) and studied with tip-manometer catheter and ventriculography measurements. In basal conditions, the method of this invention behaves similar to the ejection fraction in detecting depression in cardiac contractility in group III (−17.2% and −18.0%, respectively).

[13] = group I (normal subjects), increase in blood pressure with phenylephrine
[14] = group III (coronary artery disease with ventricular dysfunction), with the increase in blood pressure

CC(CCc1ccc(O)cc1)NCCc1ccc(O)c(O)c1 (stereo not shown) [Dobutamine, dobutamine]
Change in cardiac contractility, ESP/ESV (normal subjects [1]): 57.6% | Change in cardiac contractility, ejection fraction (normal subjects [1]): 12.8% | ESP/ESV Avg. Value (Conscious Dogs [2]): 18.5 mm Hg per ml | EF Avg. Value (Conscious Dogs [2]): 54.8 percentage | Change in contractile state, ESP/ESV (Conscious Dogs [2]): 150% | Change in contractile state, dP/dt (Conscious Dogs [2]): 34.1% | Change in contractile state, ejection fraction (Conscious Dogs [2]): 17.1% | Alteration in cardiac contractility, method of this invention [3]: 23% | Alteration in cardiac contractility, ESP/ESV [4]: 32% | Alteration in cardiac contractility, ejection fraction [4]: 15% | Change in cardiac contractility, method of this invention (normal subjects [5]): 27.5% | Method of This Invention Avg. Value (Conscious Dogs [6]): 111.7 | Change in contractile state, method of this invention (Conscious Dogs [6]): 11.7%

CC(C)NCC(O)c1ccc(O)c(O)c1 (stereo not shown) [Isoproterenol, isoproterenol]
Vcf Avg. Value (velocity of shortening) (Conscious Dog [7]): 2.83 circulation per second | dP/dT Avg. Value (Conscious Dog [7]): 5430 mm Hg per second | Change, Vcf (Conscious Dog [7]): 53% | Change, dP/dt (Conscious Dog [7]): 55% | Change, dP/dt DP40 (Conscious Dog [7]): 56% | Method of This Invention Avg. Value (Conscious Dog [8]): 120.3 | Change, method of the present invention (Conscious Dog [8]): 20.3%

COc1ccc(OC)c(C(O)C(C)N)c1 (stereo not shown) [Methoxamine, methoxamine]
Change in cardiac contractility, ejection fraction (normal subjects [1]): −10.4% | Change measured using ejection fraction [9]: −5.0% | Change in cardiac contractility, method of this invention [10]: 3.3% | Change in cardiac contractility, method of this invention (normal subjects [5]): 1.4%

O=[N+]([O-])O [Nitrate]
Change measured using ejection fraction [9]: 5.0% | Change in cardiac contractility, method of this invention [10]: −1.7%

O=[N+]([O-])OCC(CO[N+](=O)[O-])O[N+](=O)[O-] [Nitroglycerin, nitroglycerin]
Alteration in cardiac contractility, method of this invention [3]: −4% | Alteration in cardiac contractility, ESP/ESV [4]: 9% | Alteration in cardiac contractility, ejection fraction [4]: 8.3%

CNC[C@H](O)c1cccc(O)c1 [Phenylephrine, phenylephrine]
EF Avg. Value ([11]; Example 5, CAD + VD): 50.5 percentage | ESP/ESV Avg. Value ([11]; Example 5, CAD + VD): 5.0 mm Hg per ml | EF Avg. Value ([11]; Example 5, CAD): 64.0 percentage | ESP/ESV Avg. Value ([11]; Example 5, CAD): 9.9 mm Hg per ml | EF Avg. Value ([11]; Example 5, Healthy): 67.5 percentage | ESP/ESV Avg. Value ([11]; Example 5, Healthy): 10.4 mm Hg per ml | Change in ejection fraction [11, 13]: −0.1% | Fall in ESP/ESV [11, 14]: −51.9% | Fall in ejection fraction [11, 14]: −25.3% | Method of This Invention Avg. Value ([12]; Example 5, CAD): 107.3 | Method of This Invention Avg. Value ([12]; Example 5, CAD + VD): 84.2 | Method of This Invention Avg. Value ([12]; Example 5, Healthy): 110.4 | Change in cardiac contractility, method of the present invention [12, 13]: 10.4% | Fall in cardiac contractility, method of this invention [12, 14]: −15.8% | Vcf Avg. Value (velocity of shortening) (Conscious Dog [7]): 1.61 circulation per second | dP/dT Avg. Value (Conscious Dog [7]): 3670 mm Hg per second | Change, Vcf (Conscious Dog [7]): −26% | Change, dP/dt (Conscious Dog [7]): −2% | Change, dP/dt DP40 (Conscious Dog [7]): 2% | Method of This Invention Avg. Value (Conscious Dog [8]): 100.8 | Change, method of the present invention (Conscious Dog [8]): 0.8%

COc1ccc(CCN(C)CCCC(C#N)(c2ccc(OC)c(OC)c2)C(C)C)cc1OC (stereo not shown) [Verapamil, verapamil]
ESP/ESV Avg. Value (Conscious Dogs [2]): 5.1 mm Hg per ml | EF Avg. Value (Conscious Dogs [2]): 39.2 percentage | Change in contractile state, ESP/ESV (Conscious Dogs [2]): −38.5% | Change in contractile state, dP/dt (Conscious Dogs [2]): −39.9% | Change in contractile state, ejection fraction (Conscious Dogs [2]): −10.9% | Method of This Invention Avg. Value (Conscious Dogs [6]): 77.1 | Change in contractile state, method of this invention (Conscious Dogs [6]): −23%

angiotensin
Alteration in cardiac contractility, method of this invention [3]: 0.4% | C, cardiac contractility calculated with the method of this invention ([3]; individual cases 1 to 8 during angiotensin treatment, one line per case, control state C=100): 115.24 and 63.33 and 95.99 and 88.76 and 100.71 and 116.54 and 73.04 and 117.72 | Alteration in cardiac contractility, ESP/ESV [4]: 9.1% | Alteration in cardiac contractility, ejection fraction [4]: −10.3% | SV_v, stroke volume ([4]; individual cases 1 to 8 receiving angiotensin, one line per case, control mean 40): 41 and 38 and 30 and 34 and 40 and 50 and 36 and 60 | Pre_v, preload (end-diastolic volume) ([4]; individual cases 1 to 8 receiving angiotensin, one line per case, control mean 70): 68 and 119 and 66 and 78 and 79 and 82 and 95 and 93 | After_v, afterload (systolic pressure) ([4]; individual cases 1 to 8 receiving angiotensin, one line per case, control mean 109): 142 (2×) and 155 and 176 and 164 and 156 and 145 and 125
